Test results as given in US6288037A (BASF Aktiengesellschaft, priority 1996, dated 2001).
Where a SMILES comes first, the peptide text is derived from it.

tested on: N-His Ich-1; experiment: 100 mM sodium acetate (pH 6.2), 20% (v/v) glycerol, 5 mM dithiothreitol, 0.5 mM EDTA and approximately 15 μg N-His Ich-1; conditions: Human, 30° C., up to 60 minutes

Compound	not cleaved	cleaved bond
Ac-GEDMQDNSGTYW-NH2	1% cleavage after 60 minute reaction	
Ac-HSLDNKDGPVW-NH2	0% cleavage after 60 minute reaction	
Ac-NEAYVHDAPVRSLY-NH2	0% cleavage after 60 minute reaction	
Ac-RGVDQQDGKNHW-NH2		Asp7-Gly
Ac-WGDEVDGVDEVW-NH2	0% cleavage after 60 minute reaction	
Ac-YSDQMDGFHDSW-NH2	0% cleavage after 60 minute reaction	

target: T1, N-His Ich-1 (Homo sapiens, UniProt P42575); experiment: In vitro proteolysis assay: cleavage of candidate peptide substrates by N-His Ich-1 (reverse phase HPLC); format: biochemical; conditions: 10 μM peptide, 30° C., pH 6.2, 60 minute reaction
T1 construct: contains Ich-1 amino acid residues 167-435, with an initiator and polyhistidine tag fused to the amino terminus; initiator (Met) + polyhistidine tag (N); made in house
T1 sequence (P42575 184-333): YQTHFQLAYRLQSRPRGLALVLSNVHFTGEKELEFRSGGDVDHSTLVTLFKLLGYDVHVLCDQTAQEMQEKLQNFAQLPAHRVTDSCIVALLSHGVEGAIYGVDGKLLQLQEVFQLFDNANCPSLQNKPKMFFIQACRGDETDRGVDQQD
T1 sequence (P42575 334-452): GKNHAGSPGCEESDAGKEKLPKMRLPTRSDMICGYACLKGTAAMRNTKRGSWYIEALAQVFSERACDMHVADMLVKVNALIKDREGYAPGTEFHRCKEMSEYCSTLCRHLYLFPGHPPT
From the text: To identify peptide substrates for Ich-1, candidate peptides were used in in vitro proteolysis assays with recombinant Ich-1 protein. Human Ich-1 enzyme (the nucleotide and amino acid sequences for which are disclosed in Wang, L., et al. (1994) Cell 78:739-750) was expressed recombinantly with an N-terminal polyhistidine tag by methods described in Kamens, J., et al. (1995) J. Biol. Chem. 270:15250-15256. The resulting enzyme, called N-His Ich-1, contains Ich-1 amino acid residues 167-435, with an initiator and polyhistidine tag fused to the amino terminus. The recombinant N-His Ich-1 protein was purified by metal chelating column chromatography as described in Porath, J. (1992) Protein Expression and Purification 3:263-281.
Candidate peptide substrates were synthesized by standard solid phase methods and were purified to ≥95% by reverse-phase chromatography. Peptide identities were confirmed by mass spectrometry. Each peptide was acetylated at the amino-terminus and amidated at the carboxy-terminus. The amino acid sequence of each peptide included at least one Trp or Tyr residue. Stock solutions of each peptide were prepared in dimethylsulfoxide (DMSO) at approximately 10 mM. The precise concentration of each stock solution was determined in duplicate as described in Edelhoch, H. (1967) Biochemistry 6:1948-1954. Dilutions of each stock solution to 500 μM were prepared and stored at -20° C. prior to use in enzyme assays.
To determine the substrate specificity of Ich-1, Vmax /Km values for various candidate peptide substrates were compared using experimental procedures modeled after those of Howard, A., et al. (1991) J. Immunol. 147:2964-2969. Enzyme reaction mixtures (810 μL) were prepared containing: 100 mM sodium acetate (pH 6.2), 20% (v/v) glycerol, 5 mM dithiothreitol, 0.5 mM EDTA and approximately 15 μg N-His Ich-1. These mixtures were capped and preincubated for 30 minutes at 30° C. Candidate peptide substrates were added from 500 μM DMSO stocks to give final concentrations of 10 μM peptide and 2% (v/v) DMSO. The reaction mixtures were then capped and incubation was continued at 30° C. At 10 minute intervals for 60 minutes beginning at t=0, aliquots of 110 μL were removed from each reaction mixture and added to vials containing 11 μL of a solution of 3 M HCl in water to stop the enzyme reaction. Samples were stored at room temperature prior to analysis.
Samples were analyzed by reverse phase HPLC using a 250×4.6 mm C18 reverse phase column (Vydak, Hesperia, Calif.) and a linear gradient of MeCN--H2 O with 0.1% (v/v) TFA. The area under the substrate peaks (arbitrary units) was plotted vs. time of reaction for each substrate and fit into an equation of the form: [formula]
wherein S0 is substrate peak area at time=0, St is substrate peak area at time=t, e is a constant approximately equal to 2.718, k is the first order rate constant formally equal to Vmax /Km and t is time. […] Alternatively, results can be expressed as percent substrate cleavage after a fixed time of reaction.

Compound	% Cleavage after 60 minute reaction [%]
CC(=O)N[C@@H](CCCNC(=N)N)C(=O)NCC(=O)N[C@H](C(=O)N[C@@H](CC(=O)O)C(=O)N[C@@H](CCC(N)=O)C(=O)N[C@@H](CCC(N)=O)C(=O)N[C@@H](CC(=O)O)C(=O)NCC(=O)N[C@@H](CCCCN)C(=O)N[C@@H](CC(N)=O)C(=O)N[C@@H](Cc1c[nH]cn1)C(=O)N[C@@H](Cc1c[nH]c2ccccc12)C(N)=O)C(C)C [Peptide 1, acetyl-RGVDQQDGKNHW-amide] (Ac-RGVDQQDGKNHW-NH2)	80
CC(=O)N[C@@H](CC(N)=O)C(=O)N[C@@H](CCC(=O)O)C(=O)N[C@@H](C)C(=O)N[C@@H](Cc1ccc(O)cc1)C(=O)N[C@H](C(=O)N[C@@H](Cc1c[nH]cn1)C(=O)N[C@@H](CC(=O)O)C(=O)N[C@@H](C)C(=O)N1CCC[C@H]1C(=O)N[C@H](C(=O)N[C@@H](CCCNC(=N)N)C(=O)N[C@@H](CO)C(=O)N[C@@H](CC(C)C)C(=O)N[C@@H](Cc1ccc(O)cc1)C(N)=O)C(C)C)C(C)C [Peptide 2, acetyl-NEAYVHDAPVRSLY-amide] (Ac-NEAYVHDAPVRSLY-NH2)	0
CC(=O)N[C@@H](Cc1c[nH]c2ccccc12)C(=O)NCC(=O)N[C@@H](CC(=O)O)C(=O)N[C@@H](CCC(=O)O)C(=O)N[C@H](C(=O)N[C@@H](CC(=O)O)C(=O)NCC(=O)N[C@H](C(=O)N[C@@H](CC(=O)O)C(=O)N[C@@H](CCC(=O)O)C(=O)N[C@H](C(=O)N[C@@H](Cc1c[nH]c2ccccc12)C(N)=O)C(C)C)C(C)C)C(C)C [Peptide 3, acetyl-WGDEVDGVDEVW-amide] (Ac-WGDEVDGVDEVW-NH2)	0
CC(=O)N[C@@H](Cc1c[nH]cn1)C(=O)N[C@@H](CO)C(=O)N[C@@H](CC(C)C)C(=O)N[C@@H](CC(=O)O)C(=O)N[C@@H](CC(N)=O)C(=O)N[C@@H](CCCCN)C(=O)N[C@@H](CC(=O)O)C(=O)NCC(=O)N1CCC[C@H]1C(=O)N[C@H](C(=O)N[C@@H](Cc1c[nH]c2ccccc12)C(N)=O)C(C)C [Peptide 4, acetyl-HSLDNKDGPVW-amide] (Ac-HSLDNKDGPVW-NH2)	0
CSCC[C@H](NC(=O)[C@H](CC(=O)O)NC(=O)[C@H](CCC(=O)O)NC(=O)CNC(C)=O)C(=O)N[C@@H](CCC(N)=O)C(=O)N[C@@H](CC(=O)O)C(=O)N[C@@H](CC(N)=O)C(=O)N[C@@H](CO)C(=O)NCC(=O)N[C@H](C(=O)N[C@@H](Cc1ccc(O)cc1)C(=O)N[C@@H](Cc1c[nH]c2ccccc12)C(N)=O)[C@@H](C)O [Peptide 5, acetyl-GEDMQDNSGTYW-amide] (Ac-GEDMQDNSGTYW-NH2)	1
CSCC[C@H](NC(=O)[C@H](CCC(N)=O)NC(=O)[C@H](CC(=O)O)NC(=O)[C@H](CO)NC(=O)[C@H](Cc1ccc(O)cc1)NC(C)=O)C(=O)N[C@@H](CC(=O)O)C(=O)NCC(=O)N[C@@H](Cc1ccccc1)C(=O)N[C@@H](Cc1c[nH]cn1)C(=O)N[C@@H](CC(=O)O)C(=O)N[C@@H](CO)C(=O)N[C@@H](Cc1c[nH]c2ccccc12)C(N)=O [Peptide 6, acetyl-YSDQMDGFHDSW-amide] (Ac-YSDQMDGFHDSW-NH2)	0
CC[C@H](C)[C@H](NC(=O)CNC(=O)[C@H](CS)NC(C)=O)C(=O)N[C@@H](CCC(=O)O)C(=O)N[C@H](C(=O)N[C@@H](CC(=O)O)C(=O)N[C@@H](CO)C(=O)NCC(=O)N[C@H](C(=O)N[C@@H](CC(=O)O)C(=O)N[C@@H](CC(=O)O)C(=O)N[C@@H](Cc1c[nH]c2ccccc12)C(N)=O)C(C)C)[C@@H](C)O [Peptide 7, acetyl-CGIETDSGVDDW-amide] (Ac-CGIETDSGVDDW-NH2)	8

same assay, conditions: Tables 1-3

Compound	cleavage by N-His Ich-1 (in words)
CC(=O)N[C@@H](CCCNC(=N)N)C(=O)NCC(=O)N[C@H](C(=O)N[C@@H](CC(=O)O)C(=O)N[C@@H](CCC(N)=O)C(=O)N[C@@H](CCC(N)=O)C(=O)N[C@@H](CC(=O)O)C(=O)NCC(=O)N[C@@H](CCCCN)C(=O)N[C@@H](CC(N)=O)C(=O)N[C@@H](Cc1c[nH]cn1)C(=O)N[C@@H](Cc1c[nH]c2ccccc12)C(N)=O)C(C)C [Peptide 1, acetyl-RGVDQQDGKNHW-amide] (Ac-RGVDQQDGKNHW-NH2)	cleaved at a rate significantly greater than the other tested peptides
CC(=O)N[C@@H](CC(=O)O)C(=O)N[C@@H](CC(=O)O)C(=O)N[C@@H](CCC(N)=O)C(=O)N[C@@H](CCC(N)=O)C(=O)N[C@@H](CC(=O)O)C(=O)NCC(=O)N[C@@H](Cc1c[nH]c2ccccc12)C(N)=O [Peptide 21, acetyl-DDQQDGW-amide] (Ac-DDQQDGW-NH2)	weak cleavage
CC(=O)N[C@H](C(=O)N[C@@H](CO)C(=O)N[C@@H](CCC(N)=O)C(=O)N[C@@H](CCC(N)=O)C(=O)N[C@@H](CC(=O)O)C(=O)NCC(=O)N[C@@H](Cc1c[nH]c2ccccc12)C(N)=O)C(C)C [Peptide 22, acetyl-VSQQDGW-amide] (Ac-VSQQDGW-NH2)	tolerated, but is cleaved at a substantially lower efficiency than P4 Asp
CC(=O)N[C@H](C(=O)N[C@@H](CCC(=O)O)C(=O)N[C@@H](CCC(N)=O)C(=O)N[C@@H](CCC(N)=O)C(=O)N[C@@H](CC(=O)O)C(=O)NCC(=O)N[C@@H](Cc1c[nH]c2ccccc12)C(N)=O)C(C)C [Peptide 23, acetyl-VEQQDGW-amide] (Ac-VEQQDGW-NH2)	not tolerated
CC(=O)N[C@H](C(=O)N[C@@H](C)C(=O)N[C@@H](CCC(N)=O)C(=O)N[C@@H](CCC(N)=O)C(=O)N[C@@H](CC(=O)O)C(=O)NCC(=O)N[C@@H](Cc1c[nH]c2ccccc12)C(N)=O)C(C)C [Peptide 24, acetyl-VAQQDGW-amide] (Ac-VAQQDGW-NH2)	relatively poor cleavage
CC(=O)N[C@H](C(=O)N[C@@H](CC(N)=O)C(=O)N[C@@H](CCC(N)=O)C(=O)N[C@@H](CCC(N)=O)C(=O)N[C@@H](CC(=O)O)C(=O)NCC(=O)N[C@@H](Cc1c[nH]c2ccccc12)C(N)=O)C(C)C [Peptide 25, acetyl-VNQQDGW-amide] (Ac-VNQQDGW-NH2)	not tolerated
CC(=O)N[C@H](C(=O)N[C@@H](CC(=O)O)C(=O)N[C@@H](CCC(N)=O)C(=O)N[C@@H](Cc1ccc(O)cc1)C(=O)N[C@@H](CC(=O)O)C(=O)NCC(=O)N[C@@H](Cc1c[nH]c2ccccc12)C(N)=O)C(C)C [Peptide 40, acetyl-VDQYDGW-amide] (Ac-VDQYDGW-NH2)	poorly cleaved compared to the most preferred peptides
CC(=O)N[C@H](C(=O)N[C@@H](CC(=O)O)C(=O)N[C@@H](CCC(N)=O)C(=O)N[C@@H](CCC(=O)O)C(=O)N[C@@H](CC(=O)O)C(=O)NCC(=O)N[C@@H](Cc1c[nH]c2ccccc12)C(N)=O)C(C)C [Peptide 41, acetyl-VDQEDGW-amide] (Ac-VDQEDGW-NH2)	poorly cleaved compared to the most preferred peptides
CC(=O)N[C@H](C(=O)N[C@@H](CC(=O)O)C(=O)N[C@@H](CCC(N)=O)C(=O)N[C@@H](CCC(N)=O)C(=O)N[C@@H](CCC(=O)O)C(=O)NCC(=O)N[C@@H](Cc1c[nH]c2ccccc12)C(N)=O)C(C)C [Peptide 42, acetyl-VDQQEGW-amide] (Ac-VDQQEGW-NH2)	modest cleavage
